In patent US12606567B2, “Salts and forms of a WEE1 inhibitor” (Recurium IP Holdings, LLC, priority 2020, dated 2026):
Converted amounts (≈) assume the structure as drawn. Structures can show the parent of a compound that is named as a salt.

How the values were obtained:
Type in all cases: physicochemical
[1] = Hygroscopicity by DVS isotherm at 25° C. between 0% RH and 95% RH, XRPD after DVS; conditions: for Water uptake (DVS): 25° C./80% RH; for Form change after DVS test (XRPD): after DVS at 25° C., 0% RH-95% RH
Description: DVS data was measured via a SMS (Surface Measurement Systems) DVS Intrinsic. The relative humidity at 25° C. was calibrated against the deliquescence point of LiCl, Mg(NO3)2 and KCl.

[2] = Equilibrium solubility in SGF, H2O, FaSSIF and FeSSIF, slurry at 37° C. for 24 hrs; conditions: for Solubility / pH of supernatant / Form of residual solid (XRPD): 37° C., 24 hrs
Description: About 10-50 mg of each sample was weighed into 1.0 mL of each medium followed by slurry at 37° C. for 24 hrs. The samples were centrifuged and filtered using 0.45 μm PTFE filter. The solids were tested by XRPD and the supernatants were tested by HPLC and pH.

[3] = Thermodynamic stability compared with the amorphous freebase (TGA); conditions: compared with amorphous freebase of Compound A
Description: The TGA curve of the amorphous freebase of Compound A indicated a substantial and gradual weight loss starting at 30° C. and continuing to 150° C. with a total of about 17% loss.
TGA data were collected using a TA Q5000/Discovery 5500 TGA from TA Instruments. DSC was performed using a TA Q2000/Discovery 2500 DSC from TA Instruments.

[4] = Solid-state stability of the forms under storage (HPLC purity, XRPD form); conditions: for Form change on storage: all tested stability conditions
Description: It only slightly degraded at 60° C. after 2 weeks and at 80° C. after 3 days.

[5] = Initial, for the 25° C./60% RH, 40° C./75% RH and 60° C. series

| Form change after DVS test (XRPD) [1] | Solubility ([2]; FaSSIF) [mg/mL] | pH of supernatant ([2]; FaSSIF) | Form of residual solid (XRPD) ([2]; FeSSIF) | Solubility ([2]; FeSSIF) [mg/mL] | pH of supernatant ([2]; FeSSIF) | Form of residual solid (XRPD) ([2]; H2O) | Solubility ([2]; H2O) [mg/mL] | pH of supernatant ([2]; H2O) | Form of residual solid (XRPD) ([2]; SGF) | Solubility ([2]; SGF) [mg/mL] | pH of supernatant ([2]; SGF) | Purity (area %) ([4]; 25° C./60% RH, 2 week) | Purity/Initial (%) ([4]; 25° C./60% RH, 2 week) | Purity (area %) ([4]; 25° C./60% RH, 4 week) | Purity/Initial (%) ([4]; 25° C./60% RH, 4 week) | Purity (area %) ([4]; 40° C./75% RH, 2 week) | Purity/Initial (%) ([4]; 40° C./75% RH, 2 week) | Purity (area %) ([4]; 40° C./75% RH, 4 week) | Structure (SMILES) | Thermodynamic stability [3] | other results |
| --- | --- | --- | --- | --- | --- | --- | --- | --- | --- | --- | --- | --- | --- | --- | --- | --- | --- | --- | --- | --- | --- |
| No form change | 30.8 | 4.8 | Adipate Salt Form A | 5.6 | 4.8 | Adipate Salt Form A | 25.5 | 4.7 | Adipate Salt Form A | 34.1 | 4.4 | 98.85 | 100.1 | 98.91 | 100.2 | 98.82 | 100.1 | 98.85 | C=CCn1c(=O)c2cnc(Nc3ccc(N4CCN(C)CC4)cc3)nc2n1-c1ccc2c(n1)[C@@](O)(CC)CC2 [Adipate salt Form A] | more thermodynamically stable than the amorphous freebase | Water uptake (DVS) [1]: 2.2%; Solubility comparison ([2]; SGF, H2O, FaSSIF, FeSSIF): higher solubility than freebase Form E of Compound A; Solid state stability ([4]; 4 weeks at 25° C./60% RH and 40° C./75% RH, 2 weeks at 60° C., 3 days at 80° C.): stable; Purity/Initial (%) ([4]; 40° C./75% RH, 4 week): 100.1%; Purity (area %) ([4]; 60° C., 2 week): 98.25 area %; Purity/Initial (%) ([4]; 60° C., 2 week): 99.5%; Purity (area %) ([4]; 60° C., 4 week): 97.80 area %; Purity/Initial (%) ([4]; 60° C., 4 week): 99.1%; Purity (area %) ([4]; 80° C., 1 day): 99.02 area %; Purity/Initial (%) ([4]; 80° C., 1 day): 100.0%; Purity (area %) ([4]; 80° C., 3 day): 98.77 area %; Purity/Initial (%) ([4]; 80° C., 3 day): 99.7%; Purity (area %) ([4]; 80° C., 7 day): 98.44 area %; Purity/Initial (%) ([4]; 80° C., 7 day): 99.4%; Purity (area %) [4, 5]: 98.72 area %; Purity (area %) ([4]; Initial, for the 80° C. series): 99.03 area %; Degradation ([4]; after 4 weeks at 60° C.): 0.9%; Degradation ([4]; after 7 days at 80° C.): 0.6%; Form change on storage [4]: no form change |
| No form change | 1.4 (≈ 2.66 mM) | 6.8 | Amorphous | 2.6 (≈ 4.94 mM) | 5.4 | Freebase Form E | 0.099 (≈ 0.188 mM) | 8.4 | Freebase Form E | 9.0 (≈ 17.1 mM) | 6.6 | 99.37 | 100.0 | 99.39 | 100.0 | 99.45 | 100.1 | 99.45 | C=CCn1c(=O)c2cnc(Nc3ccc(N4CCN(C)CC4)cc3)nc2n1-c1ccc2c(n1)[C@@](O)(CC)CC2 [Freebase Form E] | more thermodynamically stable than the amorphous freebase | Water uptake (DVS) ([1]; listed as freebase Form E of Compound A): 0.6%; Form of residual solid (XRPD) ([2]; FaSSIF): Freebase Form E; Solid state stability ([4]; 4 weeks at 25° C./60% RH, 40° C./75% RH and 60° C., 7 days at 80° C.): stable; Purity/Initial (%) ([4]; 40° C./75% RH, 4 week): 100.1%; Purity (area %) ([4]; 60° C., 2 week): 99.35 area %; Purity/Initial (%) ([4]; 60° C., 2 week): 100.0%; Purity (area %) ([4]; 60° C., 4 week): 99.16 area %; Purity/Initial (%) ([4]; 60° C., 4 week): 99.8%; Purity (area %) ([4]; 80° C., 1 day): 99.48 area %; Purity/Initial (%) ([4]; 80° C., 1 day): 100.0%; Purity (area %) ([4]; 80° C., 3 day): 99.31 area %; Purity/Initial (%) ([4]; 80° C., 3 day): 99.9%; Purity (area %) ([4]; 80° C., 7 day): 99.12 area %; Purity/Initial (%) ([4]; 80° C., 7 day): 99.7%; Purity (area %) [4, 5]: 99.35 area %; Purity (area %) ([4]; Initial, for the 80° C. series): 99.44 area %; Form change on storage [4]: no form change |
|  |  |  |  |  |  |  |  |  |  |  |  |  |  |  |  |  |  |  | C=CCn1c(=O)c2cnc(Nc3ccc(N4CCN(C)CC4)cc3)nc2n1-c1ccc2c(n1)[C@@](O)(CC)CC2 [freebase Form J] | more thermodynamically stable than the amorphous freebase |  |
